Earlier results, collected in paper PMC7904743, “WIDOCK: a reactive docking protocol for virtual screening of covalent inhibitors” (Journal of Computer-Aided Molecular Design, 2021).
Where two headings read alike, the source gives them in different places.

Assays:
OTUB2 = conditions: experimental actives if % labeling higher than 50%, cited from earlier work
NUDT7 = conditions: protein labeling at 200 μM; experimental actives if % labeling higher than 50%; cited from earlier work
[1] = thiol reactivity, cited from earlier work
[2] = natural log of average rate constant k
[3] = natural logarithm of average rate constant
[4] = natural log of average kinetic rate constant
[5] = natural log of average rate constant

Row | SMILES | OTUB2 % labeling (OTUB2) [%] | NUDT7 % labeling (NUDT7) [%] | ln(avg k) [1, 2] | ln(avg k) [1, 3] | OTUB2 % labeling (OTUB2; OTUB2 protein labeling) [%] | ln(avg k) [1, 4] | ln(avg k) [1, 5]
1 | CC(C)(C)c1ccc(C(=O)NNC(=O)CCl)cc1 [PCM-0102355, CC(C)(C)c1ccc(C(=O)NNC(=O)CCl)cc1] | 66 | 0 | -17.324 | -17.324 | – | – | –
2 | O=C(CCl)N1CCN(S(=O)(=O)c2ccc(F)c(F)c2)CC1 [PCM-0102361, O=C(CCl)N1CCN(S(=O)(=O)c2ccc(F)c(F)c2)CC1] | 0 | 0 | -15.093 | -15.093 | – | – | –
3 | CC(C)NC(=O)NC(=O)CCl [PCM-0102504, CC(C)NC(=O)NC(=O)CCl] | 0 | 0 | -16.238 | -16.238 | – | – | –
4 | CC1(NC(=O)CCl)CCS(=O)(=O)C1 (stereo not shown) [PCM-0102230, CC1(NC(=O)CCl)CCS(=O)(=O)C1] | 0 | 0 | -16.090 | -16.090 | – | – | –
5 | O=C(CCl)NCc1ccco1 [PCM-0102671, O=C(CCl)NCc1ccco1] | 35 | 0 | -16.464 | -16.464 | – | – | –
6 | Cc1cccc(CN2CCN(C(=O)CCl)CC2)c1 [PCM-0102340, Cc1cccc(CN2CCN(C(=O)CCl)CC2)c1] | 17 | 0 | -15.593 | -15.593 | – | – | –
7 | Cc1ccc(N(C(=O)CCl)C2C=CS(=O)(=O)C2)cc1 (stereo not shown) [PCM-0102539, Cc1ccc(N(C(=O)CCl)C2C=CS(=O)(=O)C2)cc1] | 16 | 33 | -15.258 | -15.258 | – | – | –
8 | O=C(CCl)NNC(=O)c1ccc(Cl)cc1 [PCM-0102953, O=C(CCl)NNC(=O)c1ccc(Cl)cc1] | – | 0 | – | – | 18 | -17.321 | -17.321
9 | CCOC(=O)N1CCN(C(=O)CCl)CC1 [PCM-0102861, CCOC(=O)N1CCN(C(=O)CCl)CC1] | – | 0 | – | – | 0 | -17.162 | -17.162
10 | COc1ccc(N2CCN(C(=O)CCl)CC2)cc1 [PCM-0102254, COc1ccc(N2CCN(C(=O)CCl)CC2)cc1] | 0 | 0 | -15.625 | -15.625 | – | – | –
11 | CC(=O)c1sc(NC(=O)CCl)nc1C [PCM-0102838, CC(=O)c1sc(NC(=O)CCl)nc1C] | – | 12 | – | – | 0 | -16.064 | -16.064
12 | CC(NC(=O)CCl)c1ccccc1 (stereo not shown) [PCM-0102128, CC(NC(=O)CCl)c1ccccc1] | 42 | 13 | -16.398 | -16.398 | – | – | –
13 | CN1C(=O)c2ccc(NC(=O)CCl)cc2C1=O [PCM-0102309, CN1C(=O)c2ccc(NC(=O)CCl)cc2C1=O] | 19 | 12 | -15.418 | -15.418 | – | – | –
14 | O=C(CCl)N1CCN(Cc2ccccc2)C1=O [PCM-0102919, O=C(CCl)N1CCN(Cc2ccccc2)C1=O] | – | 0 | – | – | 10 | -18.275 | -18.275
15 | CC(=O)c1cccc(N2Cc3ccccc3C2=NC(=O)CCl)c1 [PCM-0102283, CC(=O)c1cccc(N2Cc3ccccc3C2=NC(=O)CCl)c1] | 0 | 0 | -16.303 | -16.303 | – | – | –
16 | O=C(CCl)NC(=O)Nc1ccc2c(c1)OCCO2 [PCM-0102614, O=C(CCl)NC(=O)Nc1ccc2c(c1)OCCO2] | 27 | 23 | -16.380 | -16.380 | – | – | –

Row | SMILES | OTUB2 % labeling (OTUB2) [%] | NUDT7 % labeling (NUDT7) [%] | ln(avg k) [1, 2] | ln(avg k) [1, 3] | OTUB2 % labeling (OTUB2; OTUB2 protein labeling) [%] | ln(avg k) [1, 4] | ln(avg k) [1, 5]
17 | Cc1cccc(NC(=O)CCl)c1 [PCM-0102116, Cc1cccc(NC(=O)CCl)c1] | 11 | 0 | -15.855 | -15.855 | – | – | –
18 | CCOC(=O)C1CCN(C(=O)CCl)CC1 [PCM-0102656, CCOC(=O)C1CCN(C(=O)CCl)CC1] | 0 | 0 | -15.523 | -15.523 | – | – | –
19 | CC(c1ccccc1)N(C)C(=O)CCl (stereo not shown) [PCM-0102478, CC(c1ccccc1)N(C)C(=O)CCl] | 0 | 10 | -16.049 | -16.049 | – | – | –
20 | O=C(CCl)NCC1CCCc2ccccc21 (stereo not shown) [PCM-0102794, O=C(CCl)NCC1CCCc2ccccc21] | – | 0 | – | – | 34 | -16.479 | -16.479
21 | O=C(CCl)N1CCCC1c1ccc2c(c1)OCCCO2 (stereo not shown) [PCM-0102512, O=C(CCl)N1CCCC1c1ccc2c(c1)OCCCO2] | 0 | 88 | -15.497 | -15.497 | – | – | –
22 | CN(Cc1cccc(C(F)(F)F)c1)C(=O)CCl [PCM-0102987, CN(Cc1cccc(C(F)(F)F)c1)C(=O)CCl] | – | 9 | – | – | 0 | -15.786 | -15.786
23 | O=C(CCl)NC(=O)NCc1ccccc1 [PCM-0102122, O=C(CCl)NC(=O)NCc1ccccc1] | 0 | 0 | -16.001 | -16.001 | – | – | –
24 | O=C(CCl)N1CCC2(CC1)OCCO2 [PCM-0102823, O=C(CCl)N1CCC2(CC1)OCCO2] | – | 0 | – | – | 0 | -16.068 | -16.068
25 | O=C(CCl)Nc1nc(-c2ccc(F)cc2)cs1 [PCM-0102809, O=C(CCl)Nc1nc(-c2ccc(F)cc2)cs1] | – | 37 | – | – | 21 | -15.559 | -15.559
26 | CS(=O)(=O)c1ccc(F)c(NC(=O)CCl)c1 [PCM-0103018, CS(=O)(=O)c1ccc(F)c(NC(=O)CCl)c1] | – | 0 | – | – | 16 | -15.950 | -15.950
27 | O=C(CCl)NC(=O)Nc1ccc(Br)cc1 [PCM-0102308, O=C(CCl)NC(=O)Nc1ccc(Br)cc1] | 10 | 17 | -16.949 | -16.949 | – | – | –
28 | O=C(CCl)N1CCN(S(=O)(=O)c2ccc3ccccc3c2)CC1 [PCM-0102836, O=C(CCl)N1CCN(S(=O)(=O)c2ccc3ccccc3c2)CC1] | – | 0 | – | – | 0 | -15.169 | -15.169
29 | Cc1ccc(CN(C)C(=O)CCl)o1 [PCM-0102399, Cc1ccc(CN(C)C(=O)CCl)o1] | 0 | 5 | -15.728 | -15.728 | – | – | –
30 | CCc1cc(C(=O)NNC(=O)CCl)sc1C [PCM-0102300, CCc1cc(C(=O)NNC(=O)CCl)sc1C] | 83 | 11 | -17.034 | -17.034 | – | – | –
31 | Cc1ccc(NC(=O)CCl)cc1I [PCM-0102577, Cc1ccc(NC(=O)CCl)cc1I] | 80 | 34 | -15.945 | -15.945 | – | – | –
